Results as given in PMC10287695, “Non-covalent inhibitors of thioredoxin glutathione reductase with schistosomicidal activity in vivo” (Nature Communications, 2023).
Where “and” joins values, the source holds several entries; their conditions need not be identical. Identical values can stand only once. Like-named read-outs stand apart in the source and are kept apart here. Marks after values point to notes of the source that are not given here.

Assays:
[1] = target: BmTrxR (Brugia malayi, UniProt A0A1I9G0T9); test: B. malayi TrxR enzyme inhibition; assay type: biochemical; details: for inhibition at 10 µM: 10 µM compound; for inhibition at 25 µM: 25 µM compound
BmTrxR, sequence (A0A1I9G0T9 entry or part of it, added parts left off): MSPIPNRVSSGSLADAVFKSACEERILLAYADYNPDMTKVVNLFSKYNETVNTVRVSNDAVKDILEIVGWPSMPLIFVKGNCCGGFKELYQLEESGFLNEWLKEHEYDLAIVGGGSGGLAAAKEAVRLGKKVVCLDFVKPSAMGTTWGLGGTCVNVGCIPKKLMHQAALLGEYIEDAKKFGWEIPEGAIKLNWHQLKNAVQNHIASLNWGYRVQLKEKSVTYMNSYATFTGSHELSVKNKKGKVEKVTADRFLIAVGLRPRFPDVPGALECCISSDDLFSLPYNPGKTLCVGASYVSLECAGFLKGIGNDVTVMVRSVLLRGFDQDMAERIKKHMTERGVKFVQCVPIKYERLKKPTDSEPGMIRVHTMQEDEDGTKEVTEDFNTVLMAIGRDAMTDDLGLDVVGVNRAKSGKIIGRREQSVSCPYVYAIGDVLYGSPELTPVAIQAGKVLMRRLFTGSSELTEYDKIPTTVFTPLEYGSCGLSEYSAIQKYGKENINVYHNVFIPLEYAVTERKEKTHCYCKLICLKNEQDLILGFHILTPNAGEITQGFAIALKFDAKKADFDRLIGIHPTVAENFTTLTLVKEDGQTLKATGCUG
How it was run: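 Recombinant, purified BmTrxR in a DTNB reduction assay: reaction started with an equal volume of DTNB (6 mM) and NADPH (100 µM), and the A412 increase over the first 3 min recorded. Run in triplicate; IC50 from curve fitting.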

[2] = target: T1, TGR (Schistosoma mansoni, UniProt Q962Y6); test: Reversibility by jump dilution; assay type: biochemical; details: for % Inhibition (ID list), D0 / % Activity (ID list), D0: D0: diluted 1:100, activity determined immediately; for % Inhibition (ID list), D0 / % Inhibition (ID list), D60 / % Activity (ID list) / % Inhibition (ID list) / % Activity (ID list), D0 / % Activity (ID list), D60: list for plotting; for % Inhibition (ID list), D60 / % Activity (ID list), D60: D60: diluted 1:100, activity determined after 60 min; for Inhibitor (rate), 0 min / % Activity, 0 min: [0, D0]: 15 min preincubation inhibitor + TGR + NADPH, diluted 1:100, then activity determined immediately; for Inhibitor (rate), 0 min / Inhibitor (rate), 60 min / Inhibitor (rate), -15: raw rate; for % Activity, 0 min / % Activity, 60 min / % Activity, -15: relative to DMSO; for Inhibitor (rate), 60 min / % Activity, 60 min: [60, D60]: 15 min preincubation inhibitor + TGR + NADPH, diluted 1:100, then activity determined after 60 min; for Inhibitor (rate), -15 / % Activity, -15: [-15]: 15 min preincubation inhibitor + TGR + NADPH, then activity determined, replicates; for % Activity (ID list) / % Inhibition (ID list): before dilution (-15)
T1 construct: made in house
T1 sequence (Q962Y6 1-598): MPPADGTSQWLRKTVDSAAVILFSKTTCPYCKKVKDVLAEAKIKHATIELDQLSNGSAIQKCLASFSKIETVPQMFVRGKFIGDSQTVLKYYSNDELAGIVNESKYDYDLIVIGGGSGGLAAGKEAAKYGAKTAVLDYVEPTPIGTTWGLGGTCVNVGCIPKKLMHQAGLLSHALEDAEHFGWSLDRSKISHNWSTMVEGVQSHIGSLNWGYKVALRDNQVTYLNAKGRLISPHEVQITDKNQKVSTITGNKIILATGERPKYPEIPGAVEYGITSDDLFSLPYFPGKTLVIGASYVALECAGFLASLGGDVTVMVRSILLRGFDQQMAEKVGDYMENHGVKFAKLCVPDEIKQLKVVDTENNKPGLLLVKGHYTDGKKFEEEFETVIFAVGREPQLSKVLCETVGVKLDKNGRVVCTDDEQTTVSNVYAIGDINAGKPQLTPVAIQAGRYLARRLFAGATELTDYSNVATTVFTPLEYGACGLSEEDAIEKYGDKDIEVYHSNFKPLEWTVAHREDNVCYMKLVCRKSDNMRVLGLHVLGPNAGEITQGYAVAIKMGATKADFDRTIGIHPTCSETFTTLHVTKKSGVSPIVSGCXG
Description: A reaction of 370 nM TGR, 100 µM NADPH, and 250 µM inhibitor was incubated for 15 min at room temperature. A 100x dilution of the reaction was made and the activity was determined immediately and after 60 min.

[3] = target: T1, TGR; test: Thermal shift assay (TSA); assay type: binding; set-up: key to Avg. Tm / Tm, replicate 1-3: Tm in °C, from a 25–95 °C melt curve; details: for Avg. Tm / Tm, replicate 1-3: TGR + 100 µM compound; for Avg. Tm, + 500 µM NADPH / Tm, replicate 1-3, + 500 µM NADPH: TGR + 100 µM compound + 500 µM NADPH; for Tm, replicate 1-3, + 500 µM NADPH / Tm, replicate 1-3: single replicates; for Tm, replicate 1-3, + 500 µM NADPH: in °C (unit assumed)
Description: Samples were prepared by using a final concentration of 0.25 mg/ml TGR diluted in TGR reaction buffer to the desired volume. To evaluate reduced TGR, 500 µM NADPH was added. […] After the preincubation period, 20 µL samples were pipetted into a BioRad un-skirted PCR 96 well plate and sealed with MicroAmp^TM Optical Adhesive film. The plate was then centrifuged for 5 min at 1000 × g. TSA was carried out using a BioRad CFX Connect qPCR instrument with a melt curve setting of 25 − 95 °C, in increments of 0.5 °C/10 seconds. The SYBR green channel was used to detect fluorescence as the wavelength of flavin fluorescence overlaps with that of SYBR green. BioRad CFX Maestro 5.2 was used to analyze TSA data.

[4] = system: S. mansoni juvenile worms (21 days); test: Schistosomicidal activity ex vivo, juvenile worms (21 days); assay type: cell-based; details: for viability at 5 µM / viability at 15 µM / viability at 30 µM: Schistosoma mansoni, 23 day S. mansoni worms, 48 HR; for viability at 5 µM: Conc. 5 µM; for viability at 15 µM: Conc. 15 µM; for viability at 30 µM: Conc. 30 µM; for LD50 ex vivo S. mansoni 21 days: juvenile worms, 48 h exposure
Description: (§1) Three-week old, female Swiss-Webster mice obtained from the Charles River were housed in the Comparative Research Center of Rush University Medical Center. Mice were infected by percutaneous tail exposure to about 200 S. mansoni or 50 S. japonicum cercaria for adult worms and about 1000 cercaria for juvenile S. mansoni worms through natural transdermal penetration of the cercariae for 1 h[81].
(§2) DMSO formulated compounds were diluted with phenol red free M199 medium or RPMI medium for NTS or juvenile and adult worms, respectively, at <1% DMSO final concentrations. NTS, juvenile and adult worms from overnight cultures were tested against compounds in triplicate. Controls were treated with DMSO alone or 5 µM AF as a positive control in appropriate medium. […] Schistosome viabilities in the presence of the compounds were assessed using this formula: % Viability = Averages of Test / Averages of DMSO Control x 100.

[5] = system: S. japonicum adult worms; test: Schistosomicidal activity ex vivo, S. japonicum adult worms; assay type: cell-based; details: for LD50 ex vivo S. japonicum adult: 48 h exposure; for viability at 5 µM / viability at 15 µM / viability at 30 µM: Schistosoma japonicum, S. japonicum adult worms, 48 hr; for viability at 5 µM: Conc. 5 µM; for viability at 15 µM: Conc. 15 µM; for viability at 30 µM: Conc. 30 µM
Description: as §1, §2

[6] = Cytotoxicity in mammalian cells (Cell Titer Glo); assay type: cell-based; details: African green monkey, Vero cells; for viability at 24 h, 5 µM: Conc. 5 µM; for viability at 24 h, 10 µM: Conc. 10 µM; for viability at 24 h, 25 µM: Conc. 25 µM; for viability at 24 h, 35 µM: Conc. 35 µM; for viability at 24 h, 50 µM: Conc. 50 µM
Description: Following overnight incubation, formulated DMSO-compound stock solutions were diluted with DMEM at <1% DMSO final concentrations. […] Vero cells treated similarly with different concentrations of PZQ, MZM and AF (Cayman Chemicals) were used as positive controls.

[7] = BmTrxR, mean of 3 replicates, read-out: % inhibition
[8] = BmTrxR, 50 µM compound, mean of 3 replicates, read-out: % inhibition
[9] = read-out: BmTrxR % inhibition at 50 µM, 50 µM, the highest concentration tested

SMILES | inhibition at 10 µM [1, 7] [%] | inhibition at 25 µM [1, 7] [%] | inhibition at 50 µM [1, 8] [%] | % Inhibition (ID list), D0 [2] | % Inhibition (ID list), D60 [2] | Inhibitor (rate), 0 min [2] | % Activity, 0 min [2] | Inhibitor (rate), 60 min [2] | % Activity, 60 min [2] | Inhibitor (rate), -15 [2] | % Activity, -15 [2] | % Inhibition (ID list) [2] | Avg. Tm [3] | Avg. Tm, + 500 µM NADPH [3] | Tm, replicate 1-3, + 500 µM NADPH [3] | Tm, replicate 1-3 [3] | viability at 5 µM [4] [%] | viability at 15 µM [4] [%] | viability at 30 µM [4] [%] | LD50 ex vivo S. mansoni 21 days [4] | also measured
Cc1oc(-c2ccc3c(c2)OCO3)nc1CN[C@@H]1C[C@@H]2C[C@H]([C@H]1C)C2(C)C [Compound 1] | 22.5 | 40.6 | 77.5 | -3.0% and -6.3% and -11.0% | -11.2% and -8.3% and -14.2% | 0.04476 and 0.04528 and 0.04727 | 96.9881% and 96.3404% and 109.043% | 0.04331 and 0.04649 and 0.04721 | 100.185% and 104.308% and 101.157% | 0.02911 and 0.02756 and 0.02942 | 84.4748% and 76.3012% and 82.9433% | 15.5% and 23.7% and 17.1% | 73.67 | 73.5 | 73.5 | 73.5 (2×) and 74 | 69 | 54.9 | 46.4 | 26.3 ± 0.48 µM | IC50 [1]: 37 ± 3.04 µM; % Activity (ID list) [2]: 84.5% and 76.3% and 82.9%; effect on Tm of oxidized TGR ([3]; without NADPH): Neither fast 6-9 nor slow TGR inhibitors 1, 3, 5 affected the Tm; LD50 ex vivo S. japonicum adult [5]: 19.6 ± 1.91 µM; viability at 5 µM [5]: 87.9%; viability at 15 µM [5]: 56.2%; viability at 30 µM [5]: 19.2%; viability at 24 h, 5 µM [6]: 94.7%; viability at 24 h, 10 µM [6]: 94.6%; viability at 24 h, 25 µM [6]: 94.3%; viability at 24 h, 35 µM [6]: 83.3%; viability at 24 h, 50 µM [6]: 72.5%
Cc1oc(C2CCCCC2)nc1C(=O)N[C@@H]1C[C@@H]2C[C@H]([C@H]1C)C2(C)C [Compound 7] | -2.13 | -0.458 | -0.00455 | 1.5% and -2.6% | -0.17% and 1.6% and 3.9% | 0.04944 and 0.05279 | 98.4664% and 102.604% | 0.04706 and 0.04925 and 0.04684 | 100.17% and 98.4213% and 96.1018% | 0.001091 and 8.088e-5 and -1.437e-5 | 2.42% and 0.1757% | 97.6% and 99.8% and 100.3% | 73.6667 | 73.5 | 73.5 | 73.5 (2×) and 74 | 77.6 | 63.5 | 58.7 | >30^a µM | inhibition at 50 µM [1, 9]: 11%; % Activity (ID list), D0 [2]: 98.5% and 102.6% and 100.0%; % Activity (ID list), D60 [2]: 100.2% and 98.4% and 96.1%; % Activity (ID list) [2]: 2.4% and 0.2% and -0.3%; LD50 ex vivo S. japonicum adult [5]: 26.8 ± 1.62 µM; viability at 5 µM [5]: 89%; viability at 15 µM [5]: 71.1%; viability at 30 µM [5]: 39.8%; viability at 24 h, 5 µM [6]: 92%; viability at 24 h, 10 µM [6]: 91.8%; viability at 24 h, 25 µM [6]: 89.5%; viability at 24 h, 35 µM [6]: 85.8%; viability at 24 h, 50 µM [6]: 83.6%
C[C@@H]1[C@H]2C[C@@H](C[C@H]1NCc1nc3ccccc3n1C1CCCCCC1)C2(C)C [Compound 8] | 17.7 | 43.3 | 68.2 | 9.2% and 6.6% and 7.5% | 6.1% and 9.1% and 6.2% | 0.05404 and 0.05709 and 0.05725 | 90.8083% and 93.3911% and 92.5327% | 0.05102 and 0.05246 and 0.05311 | 93.9422% and 90.9343% and 93.8339% | 0.005946 and 0.01664 and 0.01823 | 12.3643% and 34.0704% and 37.3107% | 77.7% and 75.9% and 68.7% | 73.8333 | 70 | 69 and 70 and 71 | 73.5 and 74 (2×) | 83.5 | 66 | 57.2 | >30^a µM | inhibition at 50 µM [1, 9]: 67.7%; % Activity (ID list), D0 [2]: 90.8% and 93.4% and 92.5%; % Activity (ID list), D60 [2]: 93.9% and 90.9% and 93.8%; LD50 ex vivo S. japonicum adult [5]: 25.8 ± 1.87 µM; viability at 5 µM [5]: 70.6%; viability at 15 µM [5]: 60.8%; viability at 30 µM [5]: 43.4%; viability at 24 h, 1 µM ([6]; Conc. 1 µM): 97%; viability at 24 h, 5 µM [6]: 93.8%; viability at 24 h, 10 µM [6]: 88.6%; viability at 24 h, 25 µM [6]: 69.7%; viability at 24 h, 50 µM [6]: 44.6%; viability at 24 h, 100 µM ([6]; Conc. 100 µM): 4.99%
